Assay results taken from article PMC9142583, “Structural basis for broad anti-phage immunity by DISARM” (Nature Communications, 2022).

Tests used:
[1] = biological target: DrmB (Serratia sp. SCBI DISARM DUF1998-containing protein) (Serratia sp. SCBI); assay: co-purification (Ni-NTA, then SEC); proteins co-expressed in E. coli BL21-AI; His6-DrmB captured on Ni-NTA (25 mM HEPES pH 8, 600 mM NaCl), then HiLoad 16/600 Superdex 200 (25 mM HEPES pH 8, 150 mM NaCl, 5% glycerol, 1 mM DTT), 4 °C; fractions checked by SDS-PAGE
DrmAB [2] = biological target: T1, DrmAB (Serratia, UniProt A0A979HMQ0); assay: ATPase assay, absorbance at […] nm; type: biochemical; details: needs unmethylated DNA stem loop; mere turnover
T1 construct: DrmAB heterodimer (~1:1, ~220 kDa) co-expressed in E. coli BL21-AI; Ni-NTA and size exclusion
T1 sequence (A0A979HMQ0 1-1325): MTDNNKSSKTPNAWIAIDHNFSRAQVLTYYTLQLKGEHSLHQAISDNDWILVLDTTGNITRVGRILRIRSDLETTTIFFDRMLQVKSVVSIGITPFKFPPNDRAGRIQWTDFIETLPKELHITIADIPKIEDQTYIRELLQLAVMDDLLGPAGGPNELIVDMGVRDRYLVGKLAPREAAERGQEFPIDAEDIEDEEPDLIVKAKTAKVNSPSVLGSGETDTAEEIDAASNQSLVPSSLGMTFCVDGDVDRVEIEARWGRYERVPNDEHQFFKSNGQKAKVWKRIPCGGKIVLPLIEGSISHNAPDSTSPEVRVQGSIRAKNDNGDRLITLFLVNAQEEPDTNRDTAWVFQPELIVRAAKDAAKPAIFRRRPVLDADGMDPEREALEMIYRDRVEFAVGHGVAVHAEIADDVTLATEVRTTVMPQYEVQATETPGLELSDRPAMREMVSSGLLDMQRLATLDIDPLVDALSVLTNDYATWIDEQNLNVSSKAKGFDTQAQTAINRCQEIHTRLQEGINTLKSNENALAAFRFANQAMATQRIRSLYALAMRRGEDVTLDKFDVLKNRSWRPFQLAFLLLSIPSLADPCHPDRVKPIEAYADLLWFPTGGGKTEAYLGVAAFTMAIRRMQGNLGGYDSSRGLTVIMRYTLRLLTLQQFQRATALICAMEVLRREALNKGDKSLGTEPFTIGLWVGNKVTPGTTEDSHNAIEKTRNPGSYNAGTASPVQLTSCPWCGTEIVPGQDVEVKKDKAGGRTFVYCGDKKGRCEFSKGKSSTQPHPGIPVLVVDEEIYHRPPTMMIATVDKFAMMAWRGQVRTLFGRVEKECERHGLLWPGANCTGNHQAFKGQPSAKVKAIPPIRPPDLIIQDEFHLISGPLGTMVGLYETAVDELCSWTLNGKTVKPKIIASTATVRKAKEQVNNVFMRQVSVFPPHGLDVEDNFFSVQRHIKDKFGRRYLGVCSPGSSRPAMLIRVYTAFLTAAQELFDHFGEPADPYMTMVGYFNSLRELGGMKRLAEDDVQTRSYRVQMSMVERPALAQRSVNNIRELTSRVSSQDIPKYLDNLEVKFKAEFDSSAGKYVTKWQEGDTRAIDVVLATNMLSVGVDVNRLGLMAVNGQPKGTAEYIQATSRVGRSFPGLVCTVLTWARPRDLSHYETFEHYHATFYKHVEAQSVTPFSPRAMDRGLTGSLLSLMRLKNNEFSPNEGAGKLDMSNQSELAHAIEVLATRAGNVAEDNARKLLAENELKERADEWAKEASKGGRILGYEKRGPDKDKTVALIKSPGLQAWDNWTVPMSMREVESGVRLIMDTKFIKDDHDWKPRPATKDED
T1 sequence (A0A979HMQ1 1-619 partner): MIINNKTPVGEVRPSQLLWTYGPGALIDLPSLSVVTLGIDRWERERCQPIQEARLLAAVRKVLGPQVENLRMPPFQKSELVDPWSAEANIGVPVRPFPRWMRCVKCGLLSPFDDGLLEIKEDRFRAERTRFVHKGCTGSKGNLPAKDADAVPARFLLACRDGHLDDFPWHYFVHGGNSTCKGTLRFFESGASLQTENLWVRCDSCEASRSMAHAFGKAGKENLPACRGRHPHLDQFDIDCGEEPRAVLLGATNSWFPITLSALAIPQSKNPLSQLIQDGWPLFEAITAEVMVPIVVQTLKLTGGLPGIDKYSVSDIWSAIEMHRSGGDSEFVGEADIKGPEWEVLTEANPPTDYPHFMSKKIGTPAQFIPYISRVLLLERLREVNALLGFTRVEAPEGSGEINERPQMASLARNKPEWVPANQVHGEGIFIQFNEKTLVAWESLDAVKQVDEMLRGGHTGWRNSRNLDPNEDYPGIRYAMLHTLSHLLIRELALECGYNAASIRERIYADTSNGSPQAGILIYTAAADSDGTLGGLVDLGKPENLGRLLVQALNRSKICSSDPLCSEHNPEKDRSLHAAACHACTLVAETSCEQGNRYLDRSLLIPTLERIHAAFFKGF

DrmAB [3] = biological target: T1, DrmAB; assay: cryo-EM structure ([…]-3.[…] A); type: binding; details: 1 mM ADP, 10 uM DrmAB; pH 7.4, ~25 C; canonical ATP site between RecA1 and RecA2 of DrmA; also in DNA-bound complex 7S9W

## DrmA (Serratia sp. SCBI DISARM helicase) (natural protein)
[1]
  stoichiometry N: 1

## Nc1ncnc2c1ncn2[C@@H]1O[C@H](COP(=O)(O)OP(=O)(O)OP(=O)(O)O)[C@@H](O)[C@H]1O [ATP]
DrmAB [2]
  ATPase assay, absorbance at 360 nm: Robust ATPase activity is strongly stimulated by unmethylated DNA

## Nc1ncnc2c1ncn2[C@@H]1O[C@H](COP(=O)(O)OP(=O)(O)O)[C@@H](O)[C@H]1O [ADP]
DrmAB [3]
  cryo-EM structure (3.3-3.4 A): We observed strong density corresponding to ADP within our DNA-bound (Fig. 2e) and DNA-free maps
